Test results taken from article PMC10326142 (Cancer Chemotherapy and Pharmacology, 2023).
Values joined by “and” are separate entries in the source; they are usually repeats but may differ in a detail not shown here. Equal entries are not always repeated. Where two headings read alike, the source gives them in different places.

How the values were obtained:
[1] = tested on: patients with solid tumors; set-up: method as in Wong et al 27; settings: monotherapy 180mg, N=6; cell as count (percent), ref Wong et al 27; cited from earlier work
P-glycoprotein (P-gp) = tested on: P-glycoprotein (P-gp); set-up: method as in PMID 34664792; settings: digoxin = P-gp substrate; cited from earlier work
[2] = Plasma pharmacokinetics of neratinib and trametinib co-administered, cycle 1 day 15 (LC/MS, noncompartmental); type: in vivo, human; settings: for Tmax / Ctau or C24 (trough concentration) / Half-life: plasma; for Ctau or C24 (trough concentration): mean (range) in Table 4; for Oral CLss (oral clearance at steady state): mean (range) in Table 4, mean ± spread in text
patients = settings: cited from earlier work
[3] = cited from earlier work
[4] = co-administered at dose level minus 1 (160 mg neratinib daily with 1 mg trametinib 5 days on and 2 days off), cycle 1 day 15, 8 patients
[5] = monotherapy 1mg, N=2, ref Infante et al 32
[6] = monotherapy 2mg, N=70, cell as count (percent), ref Infante et al 32
[7] = single agent trametinib 2 mg, 13 patients, mean (range), ref Infante et al. 32
[8] = single agent trametinib 2.5 mg, 16 patients, mean (range), ref Infante et al. 32
[9] = single agent trametinib 3 mg, 16 patients, mean (range), ref Infante et al. 32

## CCOc1cc2ncc(C#N)c(Nc3ccc(OCc4ccccn4)c(Cl)c3)c2cc1NC(=O)/C=C/CN(C)C [neratinib]
[1]
  Grade > 3 TRAE: Diarrhea: 1 (17)
  Grade > 3 TRAE: Fatigue: 1 (17)
  Grade > 3 TRAE: Nausea: 0
  Grade > 3 TRAE: Rash: 0
  Grade > 3 TRAE: Vomiting: 0
  TRAE of all grades: Anorexia: 1 (17)
  TRAE of all grades: Diarrhea: 6 (100)
  TRAE of all grades: Fatigue: 4 (67)
  TRAE of all grades: Nausea: 3 (50)
  TRAE of all grades: Rash: 1 (17)
  TRAE of all grades: Vomiting: 2 (33)
P-glycoprotein (P-gp)
  increase of digoxin AUC: 32%
  increase of digoxin plasma concentrations (Cmax): 54%
[2]; PK cohort, co-administered with trametinib
  changes in neratinib PKs compared to existing single agent PK data (in words): no observed changes
[2]; co-administered at dose level minus 1 (160 mg neratinib daily with 1 mg trametinib 5 days on and 2 days off), cycle 1 day 15, 8 patients, mean (range)
  Tmax: 5.8 (3–8) h
[2]; [4]
  Ctau or C24 (trough concentration): 43.99 (3.4–93) ng/mL
  Oral CLss (oral clearance at steady state): 76.7 ± 16.9 L/h
[2]; co-administered at dose level minus 1 (160 mg neratinib daily with 1 mg trametinib 5 days on and 2 days off), cycle 1 day 15, 8 patients, listed as Neratinib
  Oral CLss (oral clearance at steady state): 76.7 (56.5–93.5) L/h
[2]; co-administered at dose level minus 1 (160 mg neratinib daily with 1 mg trametinib 5 days on and 2 days off), day 15, 8 patients, mean (range)
  AR (accumulation ratio): 1.67 (1.19–2.16)
[2]; human, oral
  Half-life: 18 h
[2]; human, oral, read-out: Tmax
  Tmax: ~6 h

## CC(=O)Nc1cccc(-n2c(=O)n(C3CC3)c(=O)c3c(Nc4ccc(I)cc4F)n(C)c(=O)c(C)c32)c1 [trametinib]
patients; [5]
  Grade > 3 TRAE: Fatigue: 0
  Grade > 3 TRAE: Nausea: 0
patients; [6]
  TRAE of all grades: Mucositis: 3 (4)
  TRAE of all grades: Nausea: 18 (26)
  TRAE of all grades: Vomiting: 9 (13)
[2]; [4]
  Ctau or C24 (trough concentration): 27.8 (8.5–42.2) ng/mL
  Oral CLss (oral clearance at steady state): 1.55 ± 0.63 L/h and 1.55 L/h
[2]; co-administered at dose level minus 1 (160 mg neratinib daily with 1 mg trametinib 5 days on and 2 days off), cycle 1 day 15, 8 patients, listed as Trametinib
  Oral CLss (oral clearance at steady state): 1.55 (0.95–2.4) L/h
[2]; human, oral
  Half-life: 52 h
[2]; human, oral, read-out: Tmax
  Tmax: 5.6 h
[2]; vs published single agent data
  trametinib clearance when co-administered with neratinib (in words): significantly reduced
[3]; published single agent data
  oral clearance: 3.81 L/h
[3]; [7]
  Cmax: 22.2 (14–32·9) ng/mL
  Ctau or C24: 12.1 (8.26–16.9) ng/mL
  Half-life: 57.6 (4·01–210) h
[3]; [8]
  AUC0-24: 410 (215–865) ng*h/mL
  Ctau or C24: 15.1 (6.86–40.5) ng/mL
  Half-life: 90.2 (58.4–183) h
[3]; [9]
  AUC0-24: 540 (261–968) ng*h/mL
  Cmax: 33.4 (15.6–60.9) ng/mL
  Ctau or C24: 17.9 (7.77–35.5) ng/mL
  Half-life: 86.1 (15.1–291) h
  Tmax: 2.05 (0.5–10.0) h
